ChEMBL document CHEMBL4823278, “Metal binding 6-arylthio-3-hydroxypyrimidine-2,4-diones inhibited human cytomegalovirus by targeting the pUL89 endonuclease of the terminase complex” (Eur J Med Chem, 2021)

Columns and labels:
Human betaherpesvirus 5 [1] = type: functional; conditions: Human betaherpesvirus 5, HEL 299, time 168 hrs
[2] = (§1) Cytotoxicity against human HEL 299 cells assessed as cell viability at 10 uM incubated for 168 hrs by MTS-based tetrazolium reduction assay relative to control; conditions: HEL 299 cells, read-out: Activity
[3] = target: T1, Tripartite terminase subunit 3 (Human betaherpesvirus 5) (UniProt P16732); experiment: Inhibition of human cytomegalovirus pUL89 endonuclease activity using 60 bp dsDNA substrate at 20 uM incubated for 30 mins by ELISA-based biochemical assay relative to control
T1 sequence (whole entry): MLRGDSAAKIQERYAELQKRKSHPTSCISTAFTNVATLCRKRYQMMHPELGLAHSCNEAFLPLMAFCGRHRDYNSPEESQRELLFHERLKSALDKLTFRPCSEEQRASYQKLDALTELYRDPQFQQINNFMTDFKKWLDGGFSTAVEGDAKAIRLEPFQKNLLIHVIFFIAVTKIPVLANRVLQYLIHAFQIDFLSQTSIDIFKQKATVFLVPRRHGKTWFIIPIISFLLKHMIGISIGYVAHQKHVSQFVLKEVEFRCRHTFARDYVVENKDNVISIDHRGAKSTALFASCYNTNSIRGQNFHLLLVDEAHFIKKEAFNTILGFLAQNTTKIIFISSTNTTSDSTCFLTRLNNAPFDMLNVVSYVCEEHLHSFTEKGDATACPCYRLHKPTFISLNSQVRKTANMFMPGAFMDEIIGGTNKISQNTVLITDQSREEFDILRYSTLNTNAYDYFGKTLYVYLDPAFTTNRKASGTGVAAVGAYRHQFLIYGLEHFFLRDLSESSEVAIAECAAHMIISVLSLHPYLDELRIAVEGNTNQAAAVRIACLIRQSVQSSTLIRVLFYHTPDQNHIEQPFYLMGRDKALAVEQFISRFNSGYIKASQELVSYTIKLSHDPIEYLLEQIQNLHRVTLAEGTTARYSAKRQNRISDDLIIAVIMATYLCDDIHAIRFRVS

HEL 299 [4] = experiment: as §1; conditions: hel 299, 168 h, 10 µM
[5] = target: T1, Tripartite terminase subunit 3 (Human betaherpesvirus 5); conditions: dose 20.0 µM
[6] = target: T2, Tripartite terminase subunit 3 (Human betaherpesvirus 5, UniProt P16732)
T2 sequence (P16732 whole entry): T1 sequence (whole entry)
Description: Inhibition of human cytomegalovirus pUL89 endonuclease activity using 60 bp dsDNA substrate incubated for 30 mins by ELISA-based biochemical assay

[7] = Apparent permeability of the compound incubated for 5 hrs by LC-MS/MS analysis based PAMPA method; type: ADME; conditions: for Papp: pampa, 5 h
HEL 299 [8] = conditions: human, hel 299, 168 h
Human betaherpesvirus 5 [9] = type: functional, cell-based; conditions: Human betaherpesvirus 5, HEL 299, 168 h

SMILES: O=c1cc(Sc2ccc(C(F)(F)F)cc2)[nH]c(=O)n1O
- inhibition at 10 µM (Human betaherpesvirus 5 [1]): -9%
- viability at 168 h, 10 µM [2]: 119%
- inhibition [3]: 16%

SMILES: CCn1c(Sc2ccc(Br)cc2)cc(=O)n(O)c1=O
- inhibition at 10 µM (Human betaherpesvirus 5 [1]): 100%
- viability at 168 h, 10 µM [2]: 16%
- inhibition [3]: 66%

SMILES: O=c1cc(Sc2cccc(-c3cccc(C(F)(F)F)c3)c2)[nH]c(=O)n1O
- inhibition at 10 µM (Human betaherpesvirus 5 [1]): 33%
- viability at 168 h, 10 µM [2]: 118%
- inhibition [3]: 20%

SMILES: O=c1cc(Sc2ccc(-c3ccc(Cl)cc3)cc2)[nH]c(=O)n1O
- inhibition at 10 µM (Human betaherpesvirus 5 [1]): 82%
- viability at 168 h, 10 µM [2]: 102%
- inhibition [3]: 11%

SMILES: CCn1c(Sc2ccccc2F)cc(=O)n(O)c1=O
- inhibition at 10 µM (Human betaherpesvirus 5 [1]): -0.7%
- Activity (HEL 299 [4]): 124%
- inhibition [3]: 75%

SMILES: Cn1c(Sc2ccccc2)cc(=O)n(O)c1=O
- inhibition at 10 µM (Human betaherpesvirus 5 [1]): 21%
- viability at 168 h, 10 µM [2]: 115%
- inhibition [3]: 65%

SMILES: COc1cccc(-c2ccc(Sc3cc(=O)n(O)c(=O)[nH]3)cc2)c1
- inhibition at 10 µM (Human betaherpesvirus 5 [1]): 71%
- viability at 168 h, 10 µM [2]: 107%
- inhibition [3]: 11%

SMILES: Cc1ccc(-c2cccc(Nc3cc(=O)n(O)c(=O)[nH]3)c2)c(C)c1
- ΔTm [5]: -2.2 °C
- IC50 [6]: 3.5 µM

SMILES: O=c1cc(Sc2ccc([N+](=O)[O-])cc2)[nH]c(=O)n1O
- inhibition at 10 µM (Human betaherpesvirus 5 [1]): -5.1%
- viability at 168 h, 10 µM [2]: 115%
- inhibition [3]: 58%
- ΔTm [5]: 2.8 °C
- IC50 [6]: 3.6 µM
- Papp [7]: 0.017 10^-6 cm/s

SMILES: Cn1c(Sc2ccc(C(F)(F)F)cc2)cc(=O)n(O)c1=O
- inhibition at 10 µM (Human betaherpesvirus 5 [1]): 50%
- viability at 168 h, 10 µM [2]: 107%

SMILES: CCn1c(Sc2ccc(Cl)cc2)cc(=O)n(O)c1=O
- inhibition at 10 µM (Human betaherpesvirus 5 [1]): 98%
- viability at 168 h, 10 µM [2]: 40%
- inhibition [3]: 76%

SMILES: COc1ccc(-c2cccc(Sc3cc(=O)n(O)c(=O)[nH]3)c2)cc1F
- inhibition at 10 µM (Human betaherpesvirus 5 [1]): -11%
- viability at 168 h, 10 µM [2]: 106%
- inhibition [3]: 16%

SMILES: O=c1cc(Sc2ccc(O)cc2)[nH]c(=O)n1O
- inhibition at 10 µM (Human betaherpesvirus 5 [1]): 1%
- viability at 168 h, 10 µM [2]: 118%
- inhibition [3]: 27%

SMILES: O=c1cc(Sc2cccc(-c3ccc(F)cc3)c2)[nH]c(=O)n1O
- inhibition at 10 µM (Human betaherpesvirus 5 [1]): 19%
- viability at 168 h, 10 µM [2]: 100%
- inhibition [3]: 10%

SMILES: O=c1cc(Sc2ccc(-c3ccc(C(F)(F)F)cc3)cc2)[nH]c(=O)n1O
- inhibition at 10 µM (Human betaherpesvirus 5 [1]): 84%
- viability at 168 h, 10 µM [2]: 107%
- inhibition [3]: 12%

SMILES: COc1cccc(Sc2cc(=O)n(O)c(=O)n2C)c1
- inhibition at 10 µM (Human betaherpesvirus 5 [1]): 91%
- viability at 168 h, 10 µM [2]: 135%
- Papp [7]: 2.4 10^-6 cm/s

SMILES: Cn1c(Sc2ccc(F)cc2)cc(=O)n(O)c1=O
- inhibition at 10 µM (Human betaherpesvirus 5 [1]): 0%
- viability at 168 h, 10 µM [2]: 117%
- inhibition [3]: 90%
- ΔTm [5]: 0.86 °C
- IC50 [6]: 12 µM
- Papp [7]: 3 10^-6 cm/s

SMILES: O=c1cc(Sc2ccc(Br)cc2)[nH]c(=O)n1O
- inhibition at 10 µM (Human betaherpesvirus 5 [1]): 12%
- viability at 168 h, 10 µM [2]: 129%
- inhibition [3]: 14%

SMILES: Cn1c(Sc2ccc(Br)cc2)cc(=O)n(O)c1=O
- inhibition at 10 µM (Human betaherpesvirus 5 [1]): 57%
- viability at 168 h, 10 µM [2]: 113%

SMILES: O=c1cc(Sc2cccc(-c3ccc(Cl)cc3)c2)[nH]c(=O)n1O
- inhibition at 10 µM (Human betaherpesvirus 5 [1]): 81%
- viability at 168 h, 10 µM [2]: 100%

SMILES: Cn1c(Sc2cccc(F)c2)cc(=O)n(O)c1=O
- inhibition at 10 µM (Human betaherpesvirus 5 [1]): -3.8%
- viability at 168 h, 10 µM [2]: 125%
- inhibition [3]: 37%
- ΔTm [5]: 0.56 °C
- IC50 [6]: 24 µM
- Papp [7]: 2.5 10^-6 cm/s

SMILES: O=c1cc(Sc2ccccc2Br)[nH]c(=O)n1O
- inhibition at 10 µM (Human betaherpesvirus 5 [1]): -14%
- viability at 168 h, 10 µM [2]: 101%
- inhibition [3]: 21%

SMILES: Cc1ccc(-c2ccc(Nc3cc(=O)n(O)c(=O)n3C)cc2)cc1
- ΔTm [5]: -2.8 °C
- IC50 [6]: 3.3 µM

SMILES: O=c1cc(Sc2ccc(F)cc2)[nH]c(=O)n1O
- inhibition at 10 µM (Human betaherpesvirus 5 [1]): -2.3%
- viability at 168 h, 10 µM [2]: 118%
- inhibition [3]: 54%

SMILES: Cn1c(Sc2ccc(Cl)cc2)cc(=O)n(O)c1=O
- inhibition at 10 µM (Human betaherpesvirus 5 [1]): 35%
- viability at 168 h, 10 µM [2]: 132%
- Papp [7]: 4.5 10^-6 cm/s

SMILES: CCn1c(Sc2cccc(Br)c2)cc(=O)n(O)c1=O
- inhibition at 10 µM (Human betaherpesvirus 5 [1]): 100%
- viability at 168 h, 10 µM [2]: 7%
- inhibition [3]: 71%

SMILES: CCn1c(Sc2ccc(F)cc2)cc(=O)n(O)c1=O
- inhibition at 10 µM (Human betaherpesvirus 5 [1]): 67%
- viability at 168 h, 10 µM [2]: 114%
- Papp [7]: 4.1 10^-6 cm/s

SMILES: CCn1c(Sc2ccccc2Br)cc(=O)n(O)c1=O
- inhibition at 10 µM (Human betaherpesvirus 5 [1]): 100%
- viability at 168 h, 10 µM [2]: 16%
- inhibition [3]: 64%

SMILES: CCn1c(Sc2cccc(Cl)c2)cc(=O)n(O)c1=O
- inhibition at 10 µM (Human betaherpesvirus 5 [1]): 101%
- viability at 168 h, 10 µM [2]: 1.3%
- inhibition [3]: 59%
- ΔTm [5]: 0.74 °C
- IC50 [6]: 5.7 µM
- Papp [7]: 5.1 10^-6 cm/s

SMILES: O=c1cc(Sc2ccc(-c3ccc(F)cc3)cc2)[nH]c(=O)n1O
- inhibition at 10 µM (Human betaherpesvirus 5 [1]): 79%
- viability at 168 h, 10 µM [2]: 99%
- inhibition [3]: 19%

SMILES: O=C(O)c1cn(Cc2ccc(Cl)c(F)c2)cc(O)c1=O
- ΔTm [5]: 2.4 °C

SMILES: COc1ccc(-c2ccc(Sc3cc(=O)n(O)c(=O)[nH]3)cc2)cc1
- inhibition at 10 µM (Human betaherpesvirus 5 [1]): 80%
- viability at 168 h, 10 µM [2]: 94%
- CC50 (HEL 299 [8]): 20.3 µM
- inhibition [3]: 22%
- EC50 (Human betaherpesvirus 5 [9]): 7.2 µM
- Papp at 5 h ([7]; PAMPA): 1.1 ×10⁻⁶ cm/s

SMILES: O=c1cc(Sc2ccccc2)[nH]c(=O)n1O
- inhibition at 10 µM (Human betaherpesvirus 5 [1]): -16%
- viability at 168 h, 10 µM [2]: 108%
- inhibition [3]: 30%

SMILES: Cn1c(Sc2cccc(C(F)(F)F)c2)cc(=O)n(O)c1=O
- inhibition at 10 µM (Human betaherpesvirus 5 [1]): 68%
- viability at 168 h, 10 µM [2]: 99%

SMILES: Nc1nc(O)c2ncn(COC(CO)CO)c2n1 [GANCICLOVIR]
- CC50 (HEL 299 [8]): > 50 µM

SMILES: Cn1c(Sc2ccccc2Br)cc(=O)n(O)c1=O
- viability at 168 h, 10 µM [2]: 117%

SMILES: O=c1cc(Sc2cccc(Br)c2)[nH]c(=O)n1O
- inhibition at 10 µM (Human betaherpesvirus 5 [1]): -6%
- viability at 168 h, 10 µM [2]: 123%
- inhibition [3]: 16%

SMILES: CCc1ccc(Sc2cc(=O)n(O)c(=O)n2C)cc1
- inhibition at 10 µM (Human betaherpesvirus 5 [1]): 21%
- viability at 168 h, 10 µM [2]: 121%
- inhibition [3]: 67%
- ΔTm [5]: 0.29 °C
- IC50 [6]: 11.8 µM
- Papp [7]: 6.6 10^-6 cm/s

SMILES: CCn1c(Sc2cccc(F)c2)cc(=O)n(O)c1=O
- inhibition at 10 µM (Human betaherpesvirus 5 [1]): 12%
- viability at 168 h, 10 µM [2]: 126%
- inhibition [3]: 34%
- ΔTm [5]: 0.86 °C
- IC50 [6]: 23 µM
- Papp [7]: 3.4 10^-6 cm/s

SMILES: COc1cccc(Sc2cc(=O)n(O)c(=O)[nH]2)c1
- inhibition at 10 µM (Human betaherpesvirus 5 [1]): -13%
- viability at 168 h, 10 µM [2]: 114%
- inhibition [3]: 92%
- ΔTm [5]: 1.8 °C
- IC50 [6]: 1.9 µM
- Papp [7]: 0.21 10^-6 cm/s

SMILES: Cn1c(Sc2cccc(Br)c2)cc(=O)n(O)c1=O
- inhibition at 10 µM (Human betaherpesvirus 5 [1]): 100%
- viability at 168 h, 10 µM [2]: 14%
- ΔTm [5]: 0.76 °C
- IC50 [6]: 6.5 µM

SMILES: O=c1cc(Sc2cccc(-c3ccc(C(F)(F)F)cc3)c2)[nH]c(=O)n1O
- inhibition at 10 µM (Human betaherpesvirus 5 [1]): 70%
- viability at 168 h, 10 µM [2]: 110%
- inhibition [3]: 22%

SMILES: CCc1ccccc1Sc1cc(=O)n(O)c(=O)n1C
- inhibition at 10 µM (Human betaherpesvirus 5 [1]): 87%
- viability at 168 h, 10 µM [2]: 108%
- Papp [7]: 5.8 10^-6 cm/s

SMILES: Cn1c(Sc2cccc(Cl)c2)cc(=O)n(O)c1=O
- inhibition at 10 µM (Human betaherpesvirus 5 [1]): 74%
- viability at 168 h, 10 µM [2]: 117%
- CC50 (HEL 299 [8]): 23.1 µM
- inhibition [3]: 37%
- EC50 (Human betaherpesvirus 5 [9]): 4.7 µM

SMILES: O=c1cc(Sc2cccc(F)c2)[nH]c(=O)n1O
- inhibition at 10 µM (Human betaherpesvirus 5 [1]): 83%
- Activity (HEL 299 [4]): 65%
- inhibition [3]: 40%

SMILES: Cn1c(Sc2cccc3ccccc23)cc(=O)n(O)c1=O
- inhibition at 10 µM (Human betaherpesvirus 5 [1]): 98%
- viability at 168 h, 10 µM [2]: 111%
- Papp [7]: 5.1 10^-6 cm/s
